Literature values, collected in paper PMC3657752 (Inflammatory bowel diseases, 2011).

Tests used:
[1] = tested on: Experimental Autoimmune Encephalomyelitis (EAE) model; details: promoting permissive remyelination of spinal cord
[2] = tested on: colorectal, colon, and breast cancer models

For CCN(CC)CCNc1ccc2ncn3c4ccc(O)cc4c(=O)c1c23 [Symadex], the “activity in EAE model” value [1] is listed as “active” and the “activity in models of colorectal, colon, and breast cancer” value [2] is listed as “demonstrated activity”.
